Test results published in patent EP1363899B1, “QUINAZOLONE DERIVATIVES AS ALPHA 1A/B ADRENERGIC RECEPTOR ANTAGONISTS” (F.HOFFMANN-LA ROCHE AG, priority 2001, dated 2002).

Key:
alpha-1B adrenoceptor = target: T1, alpha-1B adrenoceptor (Homo sapiens, UniProt P35368); assay: [3H]prazosin binding (alpha1-adrenoceptor) assay, alpha-1B; conditions: membranes of transfected CHO-KI cells, read-out: affinity towards the alpha-1B adrenoceptor (pKi) (converted)
T1 construct: expressed in transfected cells; host or cells: CHO-K1
T1 sequence (P35368 1-520): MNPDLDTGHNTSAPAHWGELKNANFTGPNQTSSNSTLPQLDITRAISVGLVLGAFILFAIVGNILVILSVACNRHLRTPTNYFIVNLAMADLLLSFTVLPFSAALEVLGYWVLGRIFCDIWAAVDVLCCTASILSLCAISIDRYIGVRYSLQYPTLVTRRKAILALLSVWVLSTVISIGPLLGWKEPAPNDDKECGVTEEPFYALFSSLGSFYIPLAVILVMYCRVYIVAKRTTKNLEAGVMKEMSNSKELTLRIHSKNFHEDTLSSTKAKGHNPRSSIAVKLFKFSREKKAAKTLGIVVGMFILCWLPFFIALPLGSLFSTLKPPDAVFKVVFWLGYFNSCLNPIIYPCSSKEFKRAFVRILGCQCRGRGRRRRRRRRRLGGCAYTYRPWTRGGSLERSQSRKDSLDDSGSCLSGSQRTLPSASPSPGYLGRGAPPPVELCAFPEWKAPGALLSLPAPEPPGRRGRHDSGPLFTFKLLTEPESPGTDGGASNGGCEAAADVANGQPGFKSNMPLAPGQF
Method: (§1) Alpha1A, alpha1B, and alpha1D adrenoceptor transfected CHO-KI cells, prepared using the methods described by Chang et al., FEBS Lett. 1998, 422:279-283, were grown to confluence in T-162 tissue culture flasks in Ham's F-12 culture medium supplemented with 10% fetal bovine serum, geneticin (150 µg/mL) and streptomycin/penicillin (30 µg/mL/30 µg/mL) at 37 °C in 7% CO2. Cells were harvested by incubating with phosphate-buffered saline (PBS) containing 30 µM EDTA for 5-10 min at 37 °C. Cells were pelleted by centrifuging at 500 x g for 5 min, and the pelleted cells were homogenized (Polytron homogenizer) in 10 vols (w/v) of 50 mM Tris, 1 mM EDTA, (homogenisation buffer, pH 7.4 at 4 °C). The homogenate was centrifuged at 45,000 x g for 20 min. The pellet was resuspended in the homogenizing buffer and rehomogenized. The resulting homogenate was centrifuged at 45,000 x g for 20 min. The pellet was resuspended in 50 mM Tris buffer (pH 7.4 at 4 °C), aliquoted, frozen, and stored at -80 °C for further use.
(§2) The membranes were thawed at room temperature and diluted in assay buffer (50 mM Tris buffer at […]) at 37 °C and homogenized using the Polytron tissue disrupter. The membranes were incubated with the radioligand ([^3H]prazosin, NEN, 0.1 - 0.5 nM) and test compound at 37 °C for 30 min. The membranes were then filtered over polyethyleneimine-treated GF/B unifilter plates using a Packard Filtermate Harvester and washed with ice-cold 50 mM Tris-HCl, 1 mM EDTA buffer (3 x 3 sec. washes). Scintillation cocktail was added to the filter plates and bound radioligand determined by liquid scintillation spectrophotometry.
(§3) For each experiment, total binding (in the absence of any test or reference compounds) and non-specific binding (10 µM phentolamine) were determined. For each sample tested, the concentration producing 50% inhibition of binding (IC50) and Hill Slope (nH) was determined using iterative non-linear curve fitting techniques with Kaleidagraph (Synergy Software) or other appropriate software. If the radioligand KD was known, the inhibition dissociation constant (K1) of each ligand was determined according to the method of Cheng and Prusoff (Cheng, Y-C. and Prusoff, W.H., Biochem. Pharmacol., 1973, 22, 3099-3108).

alpha-1A adrenoceptor = target: T2, alpha-1A adrenoceptor (Homo sapiens, UniProt P35348); assay: [3H]prazosin binding (alpha1-adrenoceptor) assay, alpha-1A; conditions: membranes of transfected CHO-KI cells, read-out: affinity towards the alpha-1A adrenoceptor (pKi) (converted)
T2 construct: expressed in transfected cells; host or cells: CHO-K1
T2 sequence (P35348 1-466): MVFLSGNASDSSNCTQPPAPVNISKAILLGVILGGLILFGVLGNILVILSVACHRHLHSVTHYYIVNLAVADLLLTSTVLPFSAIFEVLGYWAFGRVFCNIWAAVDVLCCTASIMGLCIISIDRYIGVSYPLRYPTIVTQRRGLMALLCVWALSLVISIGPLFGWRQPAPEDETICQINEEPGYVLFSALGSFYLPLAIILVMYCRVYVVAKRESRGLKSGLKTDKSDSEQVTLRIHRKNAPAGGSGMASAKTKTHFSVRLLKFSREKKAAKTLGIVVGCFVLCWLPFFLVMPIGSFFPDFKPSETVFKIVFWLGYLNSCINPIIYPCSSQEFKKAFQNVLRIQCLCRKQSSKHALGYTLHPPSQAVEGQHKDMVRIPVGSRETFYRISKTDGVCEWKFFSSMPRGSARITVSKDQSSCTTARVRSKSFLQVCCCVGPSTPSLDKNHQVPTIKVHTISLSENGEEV
Method: as §1, §2, §3

alpha-1D adrenoceptor = target: T3, alpha-1D adrenoceptor (Homo sapiens, UniProt P25100); assay: [3H]prazosin binding (alpha1-adrenoceptor) assay, alpha-1D; conditions: membranes of transfected CHO-KI cells, read-out: affinity towards the alpha-1D adrenoceptor (pKi) (converted)
T3 construct: expressed in transfected cells; host or cells: CHO-K1
T3 sequence (P25100 1-572): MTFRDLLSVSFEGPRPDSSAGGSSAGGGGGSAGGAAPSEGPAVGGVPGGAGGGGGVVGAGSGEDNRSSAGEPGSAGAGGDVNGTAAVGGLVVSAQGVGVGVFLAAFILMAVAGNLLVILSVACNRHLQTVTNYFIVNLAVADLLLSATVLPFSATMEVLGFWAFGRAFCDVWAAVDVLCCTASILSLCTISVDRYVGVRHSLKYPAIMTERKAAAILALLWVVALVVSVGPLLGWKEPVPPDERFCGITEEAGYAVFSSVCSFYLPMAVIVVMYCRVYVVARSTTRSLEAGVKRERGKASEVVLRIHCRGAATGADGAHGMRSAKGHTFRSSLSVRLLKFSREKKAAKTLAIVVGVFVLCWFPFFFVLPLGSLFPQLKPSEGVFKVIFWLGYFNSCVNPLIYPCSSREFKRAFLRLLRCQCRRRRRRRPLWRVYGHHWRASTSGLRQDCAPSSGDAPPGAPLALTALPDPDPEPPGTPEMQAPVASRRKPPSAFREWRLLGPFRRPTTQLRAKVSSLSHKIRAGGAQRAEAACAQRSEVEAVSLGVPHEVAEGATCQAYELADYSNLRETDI
Method: as §1, §2, §3

| SMILES | Ki (alpha-1B adrenoceptor) | Ki (alpha-1A adrenoceptor) | Ki (alpha-1D adrenoceptor) |
| --- | --- | --- | --- |
| COCCN(C)c1ncnc2c1CCN(c1nc3cc(OC)c(OC)cc3c(=O)[nH]1)C2 [Compound 205] | 5.01 nM | 6.17 nM | 407 nM |
| COc1ccc(-n2cnc3c2CCN(c2nc4cc(OC)c(OC)cc4c(=O)[nH]2)C3)cc1 [Compound 608, 6,7-dimethoxy-2-[1-(4-methoxy-phenyl)-1,4,6,7-tetrahydro-imidazo[4,5-c]pyridin-5-yl]-3H-quinazolin-4-one] | 5.89 nM | 2.75 nM | 83.2 nM |
| COc1cc2nc(N3CCc4c(cccc4S(=O)(=O)N4CCN(C)CC4)C3)[nH]c(=O)c2cc1OC [Compound 401, 6,7-dimethoxy-2-[5-(4-methyl-piperazine-1-sulfonyl)-3,4-dihydro-1H-isoquinolin-2-yl]-3H-quinazolin-4-one] | 52.5 nM | 15.1 nM | 1170 nM |
| COc1cc2[nH]c(N3CCc4ccncc4C3)nc(=O)c2cc1OC [Compound 147, 2-(3,4-dihydro-1H-[2,7]naphthyridin-2-yl)-6,7-dimethoxy-1H-quinazolin-4-one] | 41.7 nM | 5.5 nM | 468 nM |
| COc1cc2nc(N3CCc4c(cccc4-c4cnccc4N)C3)[nH]c(=O)c2cc1OC [Compound 902, 2-[5-(4-amino-pyridin-3-yl)-3,4-dihydro-1H-isoquinolin-2-yl)-6,7-dimethoxy-3H-quinazolin-4-one] | 56.2 nM | 25.1 nM | 692 nM |
| COc1cc2nc(N3CCc4nc5ccncc5cc4C3)[nH]c(=O)c2cc1OC [Compound 146, 2-(3,4-dihydro-1H-2,7,10-triaza-anthracen-2-yl)-6,7-dimethoxy-3H-quinazolin-4-one] | 5.25 nM | 3.47 nM | 91.2 nM |
| COc1ccc(-c2cccc3c2CCN(c2nc4cc(OC)c(OC)cc4c(=O)[nH]2)C3)cc1 [Compound 106, 6,7-dimethoxy-2-[5-(4-methoxy-phenyl)-3,4-dihydro-1H-isoquinolin-2-yl]-3H-quinazolin-4-one] | 0.741 nM | 3.8 nM | 10000 nM |
| COc1cc2c(cc1OC)S(=O)(=O)NC(N1CCc3c(ncnc3N3CCOCC3)C1)=N2 [Compound 102, 6,7-dimethoxy-3-(4-morpholin-4-yl-5,8-dihydro-6H-pyrido[3,4d]pyrimidin-7-yl)-2H-benzo[1,2,4]thiadiazine-1,1-dioxide] | 31.6 nM | 15.8 nM | 339 nM |
| COc1cc2nc(N3CCc4c(ncn4-c4ccccc4)C3)[nH]c(=O)c2cc1OC [Compound 602, 6,7-dimethoxy-2-(1-phenyl-1,4,6,7-tetrahydro-imidazo[4,5-c]pyridin-5-yl)-3H-quinazolin-4-one] | 4.27 nM | 0.832 nM | 37.2 nM |
| COc1cc2nc(N3CCc4ccc(S(=O)(=O)N5CCOCC5)cc4C3)[nH]c(=O)c2cc1OC [Compound 404, 6,7-dimethoxy-2-[7-(morpholine-4-sulfonyl)-3,4-dihydro-1H-isoquinolin-2-yl]-3H-quinazolin-4-one] | 63.1 nM | 8.13 nM | 275 nM |
| COc1cc2[nH]c(N3CCc4c(ncn4C4CCCCC4)C3)nc(=O)c2cc1OC [Compound 619, 2-(1-cyclohexyl-1,4,6,7-tetrahydro-imidazo[4,5-c]pyridin-5-yl)-6,7-dimethoxy-1H-quinazolin-4-one] | 7.59 nM | 3.72 nM | 81.3 nM |
| COc1cc2[nH]c(N3CCn4c(cnc4-c4ccccc4)C3)nc(=O)c2cc1OC [Compound 302, 6,7-dimethoxy-2-(3-phenyl-5,6-dihydro-8H-imidazo[1,5-a]pyrazin-7-yl)-1H-quinazolin-4-one] | 0.832 nM | 0.912 nM | 6.17 nM |
| CCCCc1ncc2n1CCN(c1nc(=O)c3cc(OC)c(OC)cc3[nH]1)C2 [Compound 306, 2-(3-butyl-5,6-dihydro-8H-imidazo[1,5-α]pyrazin-7-yl)-6,7-dimethoxy-1H-quinazolin-4-one] | 3.09 nM | 1.12 nM | 19.5 nM |
| COc1cc2c(cc1OC)CN(c1nc(=O)c3cc(OC)c(OC)cc3[nH]1)CC2 [Compound 105, 2-(6,7-dimethoxy-3,4-dihydro-1H-isoquinolin-2-yl)-6,7-dimethoxy-1H-quinazolin-4-one] | 0.759 nM | 0.955 nM | 47.9 nM |
| COc1cc2nc(N3CCc4c(ncnc4N4CCN(C)CC4)C3)[nH]c(=O)c2cc1OC [Compound 203, 6,7-dimethoxy-2-[4-(4-methyl-piperazin-1-yl)-5,8-dihydro-6H-pyrido[3,4-d]pyrimidin-7-yl]-3H-quinazolin-4-one] | 8.71 nM | 4.47 nM | 575 nM |
| COc1cc2nc(N3CCc4c(ncn4Cc4ccccc4)C3)[nH]c(=O)c2cc1OC [Compound 501, 2-(1-benzyl-1,4,6,7-tetrahydro-imidazo[4,5-c]pyridin-5-yl)-6,7-dimethoxy-3H-quinazolin-4-one] | 20 nM | 3.39 nM | 347 nM |
| COc1cc2nc(N3CCc4c(cc(OC)c(OC)c4C#N)C3)[nH]c(=O)c2cc1OC [Compound 118, 2-(6,7-dimethoxy-4-oxo-3,4-dihydro-quinazolin-2-yl)-6,7-dimethoxy-1,2,3,4-tetrahydro-isoquinoline-5-carbonitrile] | 1.51 nM | 0.759 nM | 17 nM |
| COc1cc2nc(N3CCc4c([nH]c5ccccc45)C3)[nH]c(=O)c2cc1OC [Compound 143, 6,7-dimethoxy-2-(1,3,4,9-tetrahydro-β-carbolin-2-yl)-3H-quinazolin-4-one] | 1.1 nM | 0.479 nM | 20.9 nM |
| COc1cc2nc(N3CCc4c(cccc4NC4=NCCC4)C3)[nH]c(=O)c2cc1OC [Compound 810, 2-[5-(4,5-dihydro-3H-pyrrol-2-ylamino)-3,4-dihydro-1H-isoquinolin-2-yl]-6,7-dimethoxy-3H-quinazolin-4-one] | 6.61 nM | 9.55 nM | 398 nM |
